In ChEMBL document CHEMBL3217526, “Bioguided discovery and pharmacophore modeling of the mycotoxic indole diterpene alkaloids penitrems as breast cancer proliferation, migration, and invasion inhibitors” (Medchemcomm, 2013):

What was measured:
Assay type in all cases: functional
K562 = assay: Cytotoxicity against human K562 cells assessed as growth inhibition at 10 uM; details: read-out: GI
ACHN = assay: Cytotoxicity against human ACHN cells assessed as growth inhibition at 10 uM; details: read-out: GI
SK-OV-3 = assay: Cytotoxicity against human SKOV3 cells assessed as growth inhibition at 10 uM; details: read-out: GI
RXF 393 = assay: Cytotoxicity against human RXF393 cells assessed as growth inhibition at 10 uM; details: read-out: GI
[1] = Cytotoxicity against human Hs578T cells assessed as growth inhibition at 10 uM; details: Hs-578T, read-out: GI
[2] = Cytotoxicity against human EKVX cells assessed as growth inhibition at 10 uM; details: read-out: GI
SK-MEL-5 = assay: Cytotoxicity against human SK-MEL-5 cells assessed as growth inhibition at 10 uM; details: read-out: GI
[3] = Cytotoxicity against human UACC257 cells assessed as growth inhibition at 10 uM; details: UACC-257, read-out: GI
[4] = Cytotoxicity against human UACC62 cells assessed as growth inhibition at 10 uM; details: UACC-62, read-out: GI
HT-29 = assay: Cytotoxicity against human HT-29 cells assessed as growth inhibition at 10 uM; details: read-out: GI
NCI-H23 = assay: Cytotoxicity against human NCI-H23 cells assessed as growth inhibition at 10 uM; details: read-out: GI
HCC 2998 = assay: Cytotoxicity against human HCC2998 cells assessed as growth inhibition at 10 uM; details: read-out: GI
TK-10 = assay: Cytotoxicity against human TK10 cells assessed as growth inhibition at 10 uM; details: read-out: GI
M14 = assay: Cytotoxicity against human M14 cells assessed as growth inhibition at 10 uM; details: read-out: GI
MDA-MB-435 = assay: Cytotoxicity against human MDA-MB-435 cells assessed as growth inhibition at 10 uM; details: read-out: GI
A549 = assay: Cytotoxicity against human A549 cells assessed as growth inhibition at 10 uM; details: read-out: GI
T47D = assay: Cytotoxicity against human T47D cells assessed as growth inhibition at 10 uM; details: read-out: GI
SNB-75 = assay: Cytotoxicity against human SNB75 cells assessed as growth inhibition at 10 uM; details: read-out: GI
NCI-H322M = assay: Cytotoxicity against human NCI-H322M cells assessed as growth inhibition at 10 uM; details: read-out: GI
Malme-3M = assay: Cytotoxicity against human MALME-3M cells assessed as growth inhibition at 10 uM; details: read-out: GI
MOLT-4 = assay: Cytotoxicity against human MOLT4 cells assessed as growth inhibition at 10 uM; details: read-out: GI
DU-145 = assay: Cytotoxicity against human DU145 cells assessed as growth inhibition at 10 uM; details: read-out: GI
SF-539 = assay: Cytotoxicity against human SF539 cells assessed as growth inhibition at 10 uM; details: read-out: GI
LOX IMVI = assay: Cytotoxicity against human LOXIMVI cells assessed as growth inhibition at 10 uM; details: read-out: GI
SF-268 = assay: Cytotoxicity against human SF268 cells assessed as growth inhibition at 10 uM; details: read-out: GI
NCI-H522 = assay: Cytotoxicity against human NCI-H522 cells assessed as growth inhibition at 10 uM; details: read-out: GI
COLO 205 = assay: Cytotoxicity against human COLO205 cells assessed as growth inhibition at 10 uM; details: read-out: GI
MDA-MB-468 = assay: Cytotoxicity against human MDA-MB-468 cells assessed as growth inhibition at 10 uM; details: read-out: GI
CAKI-1 = assay: Cytotoxicity against human CAKI-1 cells assessed as growth inhibition at 10 uM; details: read-out: GI
MDA-MB-231 [5] = assay: Antiinvasive activity against human MDA-MB-231 cells assessed as inhibition of cell invasion at 15 uM after 24 hrs by BME Cell invasion assay kit; details: MDA-MB-231, 24 h
SK-MEL-2 = assay: Cytotoxicity against human SK-MEL-2 cells assessed as growth inhibition at 10 uM; details: read-out: GI
786-0 = assay: Cytotoxicity against human 786-0 cells assessed as growth inhibition at 10 uM; details: read-out: GI
MCF7 = assay: Cytotoxicity against human MCF7 cells assessed as growth inhibition at 10 uM; details: read-out: GI
SR = assay: Cytotoxicity against human SR cells assessed as growth inhibition at 10 uM; details: read-out: GI
NCI-H226 = assay: Cytotoxicity against human NCI-H226 cells assessed as growth inhibition at 10 uM; details: read-out: GI
SNB-19 = assay: Cytotoxicity against human SNB19 cells assessed as growth inhibition at 10 uM; details: read-out: GI
BT-549 = assay: Cytotoxicity against human BT549 cells assessed as growth inhibition at 10 uM; details: read-out: GI
SN12C = assay: Cytotoxicity against human SN12C cells assessed as growth inhibition at 10 uM; details: read-out: GI
[6] = Cytotoxicity against human OVCAR5 cells assessed as growth inhibition at 10 uM; details: OVCAR-5, read-out: GI
HL-60(TB) = assay: Cytotoxicity against human HL-60(TB) cells assessed as growth inhibition at 10 uM; details: read-out: GI
[7] = Cytotoxicity against human OVCAR3 cells assessed as growth inhibition at 10 uM; details: OVCAR-3, read-out: GI
MDA-MB-231 [8] = assay: Cytotoxicity against human MDA-MB-231 cells assessed as growth inhibition at 10 uM; details: read-out: GI
SW-620 = assay: Cytotoxicity against human SW620 cells assessed as growth inhibition at 10 uM; details: read-out: GI
KM12 = assay: Cytotoxicity against human KM12 cells assessed as growth inhibition at 10 uM; details: read-out: GI
NCI-H460 = assay: Cytotoxicity against human NCI-H460 cells assessed as growth inhibition at 10 uM; details: read-out: GI
IGROV-1 = assay: Cytotoxicity against human IGROV1 cells assessed as growth inhibition at 10 uM; details: read-out: GI
[9] = Cytotoxicity against human HCT15 cells assessed as growth inhibition at 10 uM; details: HCT-15, read-out: GI
[10] = Cytotoxicity against human OVCAR8 cells assessed as growth inhibition at 10 uM; details: OVCAR-8, read-out: GI
PC-3 = assay: Cytotoxicity against human PC3 cells assessed as growth inhibition at 10 uM; details: read-out: GI
SK-MEL-28 = assay: Cytotoxicity against human SK-MEL-28 cells assessed as growth inhibition at 10 uM; details: read-out: GI
HOP-62 = assay: Cytotoxicity against human HOP62 cells assessed as growth inhibition at 10 uM; details: read-out: GI
HCT-116 = assay: Cytotoxicity against human HCT116 cells assessed as growth inhibition at 10 uM; details: read-out: GI
U-251 = assay: Cytotoxicity against human U251 cells assessed as growth inhibition at 10 uM; details: read-out: GI
CCRF-CEM = assay: Cytotoxicity against human CCRF-CEM cells assessed as growth inhibition at 10 uM; details: read-out: GI
[11] = Cytotoxicity against human UO31 cells assessed as growth inhibition at 10 uM; details: UO-31, read-out: GI
SF-295 = assay: Cytotoxicity against human SF295 cells assessed as growth inhibition at 10 uM; details: read-out: GI

C=C(C)[C@H]1O[C@H]2CC[C@@]3(C)[C@@](O)(CC[C@H]4[C@@H]5OC(C)(C)[C@H]6C[C@@H]7C(=C)Cc8c(Cl)cc9[nH]c(c5c9c8[C@@]76O)[C@@]43C)[C@@]23O[C@H]3[C@H]1O [PENITREM A]
inhibition of growth at 10 µM (K562): 66.1%
inhibition of growth at 10 µM (ACHN): 75.2%
inhibition of growth at 10 µM (SK-OV-3): 109%
inhibition of growth at 10 µM (RXF 393): 76.5%
inhibition of growth at 10 µM [1]: 94%
inhibition of growth at 10 µM [2]: 76.3%
inhibition of growth at 10 µM (SK-MEL-5): 68.3%
inhibition of growth at 10 µM [3]: 76.2%
inhibition of growth at 10 µM [4]: 74.9%
inhibition of growth at 10 µM (HT-29): 86.9%
inhibition of growth at 10 µM (NCI-H23): 88.6%
inhibition of growth at 10 µM (HCC 2998): 77%
inhibition of growth at 10 µM (TK-10): 98.6%
inhibition of growth at 10 µM (M14): 62.6%
inhibition of growth at 10 µM (MDA-MB-435): 52.9%
inhibition of growth at 10 µM (A549): 73.7%
inhibition of growth at 10 µM (T47D): 73.9%
inhibition of growth at 10 µM (SNB-75): 53.7%
inhibition of growth at 10 µM (NCI-H322M): 65.2%
inhibition of growth at 10 µM (Malme-3M): 43.2%
inhibition of growth at 10 µM (MOLT-4): 53.2%
inhibition of growth at 10 µM (DU-145): 85.5%
inhibition of growth at 10 µM (SF-539): 89%
inhibition of growth at 10 µM (LOX IMVI): 79.4%
inhibition of growth at 10 µM (SF-268): 71%
inhibition of growth at 10 µM (NCI-H522): 77.1%
inhibition of growth at 10 µM (COLO 205): 91.3%
inhibition of growth at 10 µM (MDA-MB-468): 69.6%
inhibition of growth at 10 µM (CAKI-1): 35.5%
inhibition at 15 µM (MDA-MB-231 [5]): > 75%
inhibition of growth at 10 µM (SK-MEL-2): 95.1%
inhibition of growth at 10 µM (786-0): 93.1%
inhibition of growth at 10 µM (MCF7): 55.8%
inhibition of growth at 10 µM (SR): 46%
inhibition of growth at 10 µM (NCI-H226): 76.8%
inhibition of growth at 10 µM (SNB-19): 67.7%
inhibition of growth at 10 µM (BT-549): 98.2%
inhibition of growth at 10 µM (SN12C): 73.3%
inhibition of growth at 10 µM [6]: 105%
inhibition of growth at 10 µM (HL-60(TB)): 74.7%
inhibition of growth at 10 µM [7]: 92.6%
inhibition of growth at 10 µM (MDA-MB-231 [8]): 97.5%
inhibition of growth at 10 µM (SW-620): 93.3%
inhibition of growth at 10 µM (KM12): 71.5%
inhibition of growth at 10 µM (NCI-H460): 85.5%
inhibition of growth at 10 µM (IGROV-1): 74.9%
inhibition of growth at 10 µM [9]: 78.7%
inhibition of growth at 10 µM [10]: 83.2%
inhibition of growth at 10 µM (PC-3): 39.3%
inhibition of growth at 10 µM (SK-MEL-28): 83.4%
inhibition of growth at 10 µM (HOP-62): 107%
inhibition of growth at 10 µM (HCT-116): 67.4%
inhibition of growth at 10 µM (U-251): 85.1%
inhibition of growth at 10 µM (CCRF-CEM): 57.2%
inhibition of growth at 10 µM [11]: 41%
inhibition of growth at 10 µM (SF-295): 57.1%
